The target of one assay is T1, GABAA receptor α2β3γ2 (Homo sapiens, UniProt P18507+P47869).
T1 construct: expressed in transfected cells; host or cells: Xenopus laevis oocytes injected with cRNA
As to the kind of experiment: Two-electrode voltage-clamp potentiation of GABA EC10 current in Xenopus oocytes, GABAA2. Type of assay: cell-based. The note with it: percentage potentiation of GABA EC10 current divided by that of diazepam. The method in brief:
(§1)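 Human GABAA receptors expressed in Xenopus oocytes by cRNA injection (α:β:γ molar ratio ~1:1:10 for α1β2γ2, 1:1:1 for α2β3γ2), recorded 2-10 days later by two-electrode voltage clamp at −60 mV in ND-96, pH 7.5. Modulator preapplied 30 s before GABA at per-oocyte EC10. Peak-current percent potentiation over GABA alone, normalised to diazepam.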

In assay [1] the target is T2, GABAA2 receptors (α2, β3, γ2 receptor subunits transfected into Sf9 cells) (Homo sapiens, UniProt P18507+P47869).
T2 construct: host or cells: Sf9 cells (membranes)
The assay is described as follows: GABAA2 Binding Method ([3H]-Flunitrazepam displacement). The note with it: [3H]-Flunitrazepam ~2 nM, α2β3γ2 Sf9 membranes, 1 hr at 4° C. The method in brief: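 Displacement of [3H]-flunitrazepam (~2 nM in assay) from recombinant human α2β3γ2 receptors in Sf9 membranes; 1 h incubation at 4 °C, harvest by filtration. Values reported as percent of control, IC50 and Ki.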

In the next assay the target is T3, GABAA receptor α1β2γ2 (Homo sapiens, UniProt P14867+P18507).
T3 construct: expressed in transfected cells; host or cells: Xenopus laevis oocytes injected with cRNA
As to the kind of experiment: Two-electrode voltage-clamp potentiation of GABA EC10 current in Xenopus oocytes, GABAA1. Type of assay: cell-based. The note with it: percentage potentiation of GABA EC10 current divided by that of diazepam. The method in brief: as §1
In general terms: Two-electrode voltage clamp is typically applied to oocytes expressing channels or transporters.

T3 sequence (P14867 28-456): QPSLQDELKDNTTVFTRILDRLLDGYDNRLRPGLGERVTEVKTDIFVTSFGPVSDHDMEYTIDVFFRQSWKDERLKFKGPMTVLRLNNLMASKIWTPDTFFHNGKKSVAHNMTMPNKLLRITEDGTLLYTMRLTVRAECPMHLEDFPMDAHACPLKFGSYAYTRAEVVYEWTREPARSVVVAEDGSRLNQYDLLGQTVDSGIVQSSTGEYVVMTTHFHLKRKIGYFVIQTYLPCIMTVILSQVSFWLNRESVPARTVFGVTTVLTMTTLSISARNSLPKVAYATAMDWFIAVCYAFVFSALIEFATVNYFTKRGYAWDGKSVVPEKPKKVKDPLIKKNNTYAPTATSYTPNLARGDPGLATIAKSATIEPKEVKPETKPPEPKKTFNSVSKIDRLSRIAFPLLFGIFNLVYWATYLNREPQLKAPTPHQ
T3 sequence (P47870 25-512 partner limits assumed): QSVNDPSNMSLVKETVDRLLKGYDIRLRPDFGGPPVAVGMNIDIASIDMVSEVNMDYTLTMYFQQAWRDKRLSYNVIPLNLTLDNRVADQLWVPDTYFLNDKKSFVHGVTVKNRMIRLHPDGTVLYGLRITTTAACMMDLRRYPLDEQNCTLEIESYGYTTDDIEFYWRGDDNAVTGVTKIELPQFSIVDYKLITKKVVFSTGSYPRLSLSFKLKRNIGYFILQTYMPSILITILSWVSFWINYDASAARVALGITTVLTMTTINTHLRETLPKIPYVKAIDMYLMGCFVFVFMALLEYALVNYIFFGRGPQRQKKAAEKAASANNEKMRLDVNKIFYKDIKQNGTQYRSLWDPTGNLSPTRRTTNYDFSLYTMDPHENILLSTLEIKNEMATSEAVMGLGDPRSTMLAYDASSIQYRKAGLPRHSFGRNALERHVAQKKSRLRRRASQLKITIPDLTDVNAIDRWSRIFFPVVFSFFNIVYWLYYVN
T3 sequence (P18507 40-475): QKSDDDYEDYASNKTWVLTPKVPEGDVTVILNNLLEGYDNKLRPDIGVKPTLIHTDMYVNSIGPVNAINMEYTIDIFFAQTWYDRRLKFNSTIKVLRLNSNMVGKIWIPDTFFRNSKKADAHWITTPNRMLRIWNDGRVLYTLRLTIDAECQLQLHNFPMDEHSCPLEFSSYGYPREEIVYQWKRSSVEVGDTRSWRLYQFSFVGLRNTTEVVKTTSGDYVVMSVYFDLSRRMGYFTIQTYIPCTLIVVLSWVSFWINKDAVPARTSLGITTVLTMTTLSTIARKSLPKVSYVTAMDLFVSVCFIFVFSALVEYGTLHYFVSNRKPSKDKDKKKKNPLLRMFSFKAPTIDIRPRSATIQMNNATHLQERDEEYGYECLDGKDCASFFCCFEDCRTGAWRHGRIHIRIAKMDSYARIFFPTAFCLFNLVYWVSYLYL
T1 sequence (P47869 29-451): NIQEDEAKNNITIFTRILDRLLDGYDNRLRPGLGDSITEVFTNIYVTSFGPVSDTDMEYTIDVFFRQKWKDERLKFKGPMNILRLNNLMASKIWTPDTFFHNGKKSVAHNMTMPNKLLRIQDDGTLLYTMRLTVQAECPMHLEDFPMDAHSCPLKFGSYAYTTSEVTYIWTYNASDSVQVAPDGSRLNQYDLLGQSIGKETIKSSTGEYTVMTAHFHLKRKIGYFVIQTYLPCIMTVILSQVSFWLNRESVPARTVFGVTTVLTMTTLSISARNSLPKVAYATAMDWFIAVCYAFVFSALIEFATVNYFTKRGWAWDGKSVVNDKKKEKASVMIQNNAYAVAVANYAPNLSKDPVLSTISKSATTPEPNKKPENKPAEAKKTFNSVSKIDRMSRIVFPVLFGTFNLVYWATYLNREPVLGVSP
T1 sequence (P28472 26-473 partner): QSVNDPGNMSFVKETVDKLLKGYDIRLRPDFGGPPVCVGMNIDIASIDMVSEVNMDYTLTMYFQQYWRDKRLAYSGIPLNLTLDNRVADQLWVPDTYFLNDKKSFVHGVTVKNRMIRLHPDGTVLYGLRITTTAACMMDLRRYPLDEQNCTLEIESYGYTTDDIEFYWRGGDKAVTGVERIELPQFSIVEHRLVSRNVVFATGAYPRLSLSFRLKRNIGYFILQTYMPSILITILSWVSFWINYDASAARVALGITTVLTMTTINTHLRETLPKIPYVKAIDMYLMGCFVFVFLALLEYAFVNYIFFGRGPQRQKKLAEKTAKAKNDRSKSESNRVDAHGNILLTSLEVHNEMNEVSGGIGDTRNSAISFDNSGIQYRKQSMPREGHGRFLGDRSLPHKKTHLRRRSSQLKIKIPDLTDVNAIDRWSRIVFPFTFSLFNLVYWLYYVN
T1 sequence (P18507 40-475): as the sequence (P18507 40-475) above
T2 sequence (P47869 29-451): as the sequence (P47869 29-451) above
T2 sequence (P28472 26-473 partner): as the sequence (P28472 26-473 partner) above
T2 sequence (P18507 40-475): as the sequence (P18507 40-475) above

A word on the Ki: it is a measure of affinity in units of concentration, obtained from inhibition or displacement. High values mean lower affinity, low ones higher affinity. `COc1cccc(Cl)c1-c1c(F)ccc2c(N)c3c(nc12)CN(C1CC1)C3=O` [9-amino-5-(2-chloro-6-methoxyphenyl)-2-cyclopropyl-6-fluoro-2,3-dihydro-1H-pyrrolo[3,4-b]quinolin-1-one]: the “Relative Potentiation for GABAA2” value at GABAA receptor α2β3γ2 is reported as 0.013. Besides, in assay [1], the inhibitory constant (Ki) is 4.85 nM. Besides, the “Relative Potentiation for GABAA1” value on GABAA receptor α1β2γ2 was −0.15.
Taken in the same sequence, the figures for `CCCN1Cc2nc3c(-c4cc(OC)ccc4F)cccc3c(N)c2C1=O` [9-amino-5-(2-fluoro-5-methoxyphenyl)-2-propyl-2,3-dihydro-1H-pyrrolo[3,4-b]quinolin-1-one] were 0.39, 12.5 nM and 0.39.
For `CCCN1Cc2nc3c(-c4ccc(C)nc4F)cccc3c(N)c2C1=O` [9-amino-5-(2-fluoro-6-methylpyridin-3-yl)-2-propyl-2,3-dihydro-1H-pyrrolo[3,4-b]quinolin-1-one], in that order: 0.37, 19.7 nM and 0.22.
For `COc1ccc(CN2Cc3nc4c(-c5cccnc5F)cccc4c(N)c3C2=O)cc1` [9-amino-5-(2-fluoropyridin-3-yl)-2-(4-methoxybenzyl)-2,3-dihydro-1H-pyrrolo[3,4-b]quinolin-1-one], in that order: 0.32, 6.82 nM and 0.18.
On to `CCCN1Cc2nc3c(-c4cc(C)ccc4OC)cccc3c(N)c2C1=O` [9-amino-5-(2-methoxy-5-methylphenyl)-2-propyl-2,3-dihydro-1H-pyrrolo[3,4-b]quinolin-1-one], for which the “Relative Potentiation for GABAA2” value at GABAA receptor α2β3γ2 stood at 0.37. This compound also yielded an inhibition constant Ki in assay [1] of 47.2 nM. Further, the “Relative Potentiation for GABAA1” value at GABAA receptor α1β2γ2 is on record as 0.17.
For `CCCN1Cc2nc3c(-c4cc(C)cnc4OC)cccc3c(N)c2C1=O` [9-amino-5-(2-methoxy-5-methylpyridin-3-yl)-2-propyl-2,3-dihydro-1H-pyrrolo[3,4-b]quinolin-1-one], in that order: 0, 3.59 nM and 0.58.
For `CCCN1Cc2nc3c(-c4cccnc4OC)cccc3c(N)c2C1=O` [9-amino-5-(2-methoxypyridin-3-yl)-2-propyl-2,3-dihydro-1H-pyrrolo[3,4-b]quinolin-1-one], in that order: 0.58, 42.1 nM and 0.36.
Taken in the same sequence, the figures for `CCCN1Cc2nc3c(-c4cccnc4C)cccc3c(N)c2C1=O` [9-amino-5-(2-methylpyridin-3-yl)-2-propyl-2,3-dihydro-1H-pyrrolo[3,4-b]quinolin-1-one] were 0.26, 11.4 nM and 0.22.
`CCCN1Cc2nc3c(-c4cccc(OC)c4)cccc3c(N)c2C1=O` [9-amino-5-(3-methoxyphenyl)-2-propyl-2,3-dihydro-1H-pyrrolo[3,4-b]quinolin-1-one]: the “Relative Potentiation for GABAA2” value on GABAA receptor α2β3γ2 is given as 0.3. The Ki in assay [1] turned out to be 62.9 nM. Moreover, the “Relative Potentiation for GABAA1” value on GABAA receptor α1β2γ2 came out at 0.31.
For `CCCN1Cc2nc3c(-c4ccc(F)cc4OC)cccc3c(N)c2C1=O` [9-amino-5-(4-fluoro-2-methoxyphenyl)-2-propyl-2,3-dihydro-1H-pyrrolo[3,4-b]quinolin-1-one], in that order: 0.2, 60.8 nM and 0.2.
For `CCCN1Cc2nc3c(-c4cnccc4OC)cccc3c(N)c2C1=O` [9-amino-5-(4-methoxypyridin-3-yl)-2-propyl-2,3-dihydro-1H-pyrrolo[3,4-b]quinolin-1-one], in that order: 0.62, 39.2 nM and 0.39.
`CCCN1Cc2nc3c(-c4cnccc4C)cccc3c(N)c2C1=O` [9-amino-5-(4-methylpyridin-3-yl)-2-propyl-2,3-dihydro-1H-pyrrolo[3,4-b]quinolin-1-one]: at GABAA receptor α2β3γ2, the “Relative Potentiation for GABAA2” value came to 0.34. Moreover, the affinity in assay [1] corresponds to a Ki of 55.7 nM. In addition, at GABAA receptor α1β2γ2, the “Relative Potentiation for GABAA1” value was 0.36.
Taken in the same sequence, the figures for `CCCN1Cc2nc3c(-c4cc(Cl)ccc4OC)cccc3c(N)c2C1=O` [9-amino-5-(5-chloro-2-methoxyphenyl)-2-propyl-2,3-dihydro-1H-pyrrolo[3,4-b]quinolin-1-one] were 0.54, 39.6 nM and 0.36.
For `CCCN1Cc2nc3c(-c4cc(F)ccc4OC)cccc3c(N)c2C1=O` [9-amino-5-(5-fluoro-2-methoxyphenyl)-2-propyl-2,3-dihydro-1H-pyrrolo[3,4-b]quinolin-1-one], in that order: 0.25, 80.3 nM and 0.19.
For `CCCN1Cc2nc3c(-c4ccc(F)nc4C)cccc3c(N)c2C1=O` [9-amino-5-(6-fluoro-2-methylpyridin-3-yl)-2-propyl-2,3-dihydro-1H-pyrrolo[3,4-b]quinolin-1-one], in that order: 0.48, 22.3 nM and 1.7.
Turning to `CCCN1Cc2nc3c(-c4cnc(F)c(C)c4)cccc3c(N)c2C1=O` [9-amino-5-(6-fluoro-5-methylpyridin-3-yl)-2-propyl-2,3-dihydro-1H-pyrrolo[3,4-b]quinolin-1-one], the “Relative Potentiation for GABAA2” value at GABAA receptor α2β3γ2 is 0.32. Also, the affinity in assay [1] corresponds to a Ki of 30.3 nM. Besides, the “Relative Potentiation for GABAA1” value at GABAA receptor α1β2γ2 is listed as 0.31.
Taken in the same sequence, the figures for `COc1ccc(CN2Cc3nc4c(-c5ccc(-c6ccc(Cl)nc6)nc5)cccc4c(N)c3C2=O)cc1OC` [9-amino-5-(6′-chloro-2,3′-bipyridin-5-yl)-2-(3,4-dimethoxybenzyl)-2,3-dihydro-1H-pyrrolo[3,4-b]quinolin-1-one] were 0.023, 20.4 nM and −0.048.
Taken in the same sequence, the figures for `COc1ccc(CN2Cc3nc4c(-c5c(F)cccc5OC)cccc4c(N)c3C2=O)cc1` [Example 1, 9-Amino-5-(2-fluoro-6-methoxyphenyl)-2-(4-methoxybenzyl)-2,3-dihydropyrrolo[3,4-b]quinolin-1-one] were 0.2, 9.8 nM and −0.034.
For `COc1ccc(CN2Cc3nc4c(-c5cc(F)ccc5F)cccc4c(N)c3C2=O)cc1` [Example 2], in that order: 0.13, 44.3 nM and 0.12.
Take `COc1ccc(CN2Cc3nc4c(-c5cccnc5OC)cccc4c(N)c3C2=O)cc1` [Example 3, 9-Amino-2-(4-methoxybenzyl)-5-(2-methoxypyridin-3-yl)-2,3-dihydropyrrolo[3,4-b]quinolin-1-one]: the “Relative Potentiation for GABAA2” value on GABAA receptor α2β3γ2 came to 0.68. Affinity in assay [1] was put at a Ki of 22 nM. In addition, on GABAA receptor α1β2γ2, the “Relative Potentiation for GABAA1” value amounted to 0.12.
Take `COc1ccc(OC)c(CN2Cc3nc4c(-c5cccnc5OC)cccc4c(N)c3C2=O)c1` [Example 4, 9-Amino-2-(2,5-dimethoxybenzyl)-5-(2-methoxypyridin-3-yl)-2,3-dihydropyrrolo[3,4-b]quinolin-1-one]: the “Relative Potentiation for GABAA2” value at GABAA receptor α2β3γ2 was 0.18. The same compound gave a Ki in assay [1] of 31.2 nM. The “Relative Potentiation for GABAA1” value at GABAA receptor α1β2γ2 is recorded as 0.013.
`CCCN1Cc2nc3c(-c4c(F)cccc4OC)cccc3c(N)c2C1=O` [Example 5, 9-Amino-5-(2-fluoro-6-methoxyphenyl)-2-propyl-2,3-dihydropyrrolo[3,4-b]quinolin-1-one]: at GABAA receptor α2β3γ2, the “Relative Potentiation for GABAA2” value worked out at 0.3. Also, in assay [1], the affinity corresponds to a Ki of 5.03 nM. The “Relative Potentiation for GABAA1” value on GABAA receptor α1β2γ2 is 0.11.
For `CCCN1Cc2nc3c(-c4cccc(C)c4C)cccc3c(N)c2C1=O` [Example 6, 9-Amino-5-(2,3-dimethylphenyl)-2-propyl-2,3-dihydropyrrolo[3,4-b]quinolin-1-one], in that order: 0.22, 17.3 nM and 0.13.
For the compound `CCCN1Cc2nc3c(-c4cc(C)cc(C)c4)cccc3c(N)c2C1=O` [Example 7, 9-Amino-5-(3,5-dimethylphenyl)-2-propyl-2,3-dihydropyrrolo[3,4-b]quinolin-1-one], the “Relative Potentiation for GABAA2” value at GABAA receptor α2β3γ2 came out at 0.27. For the same compound, the affinity in assay [1], expressed as Ki, was 94.3 nM. At GABAA receptor α1β2γ2, the “Relative Potentiation for GABAA1” value is reported as 0.16.
`COc1ccc(CN2Cc3nc4c(-c5ccc(Cl)nc5)cccc4c(N)c3C2=O)cc1OC` [Example 8, 9-Amino-5-(6-chloropyridin-3-yl)-2-(3,4-dimethoxybenzyl)-2,3-dihydropyrrolo[3,4-b]quinolin-1-one]: the “Relative Potentiation for GABAA2” value on GABAA receptor α2β3γ2 is given as 0.07. The compound also gave a Ki in assay [1] of 45.9 nM. The “Relative Potentiation for GABAA1” value at GABAA receptor α1β2γ2 worked out at 0.013.
Taken in the same sequence, the figures for `CCCN1Cc2nc3c(-c4ccc(OC)nc4OC)cccc3c(N)c2C1=O` [Example 9, 9-Amino-5-(2,6-dimethoxypyridin-3-yl)-2-propyl-2,3-dihydropyrrolo[3,4-b]quinolin-1-one] were 0.31, 28.1 nM and 0.068.

The record behind these values is US20080318943A1, “Compounds and Uses Thereof - 848” (ASTRAZENECA AB, priority 2007, published 2008).
